Measurements reported in US20100234310A1, “ESTROGENIC COMPOUNDS AND THEIR METHODS OF USE” (Bionovo, Inc., priority 2009, published 2010).

What was measured:
ER-β = biological target: T1, ER-β (Homo sapiens, UniProt Q92731); test: ER-β specific assay: ER-β plasmid co-transfected with TNF-RE-tk-Luc or ERE-tk-Luc; type: cell-based
T1 construct: expressed in transfected cells
Protocol: Purified compounds were analyzed by LC-MS and NMR and data was compared to data acquired from authentic purchased standards.

breast cancer cells = test: Activity in cancerous cells, in particular breast cancer cells, in vitro; type: cell-based

T1 sequence (Q92731 whole entry, species assumed): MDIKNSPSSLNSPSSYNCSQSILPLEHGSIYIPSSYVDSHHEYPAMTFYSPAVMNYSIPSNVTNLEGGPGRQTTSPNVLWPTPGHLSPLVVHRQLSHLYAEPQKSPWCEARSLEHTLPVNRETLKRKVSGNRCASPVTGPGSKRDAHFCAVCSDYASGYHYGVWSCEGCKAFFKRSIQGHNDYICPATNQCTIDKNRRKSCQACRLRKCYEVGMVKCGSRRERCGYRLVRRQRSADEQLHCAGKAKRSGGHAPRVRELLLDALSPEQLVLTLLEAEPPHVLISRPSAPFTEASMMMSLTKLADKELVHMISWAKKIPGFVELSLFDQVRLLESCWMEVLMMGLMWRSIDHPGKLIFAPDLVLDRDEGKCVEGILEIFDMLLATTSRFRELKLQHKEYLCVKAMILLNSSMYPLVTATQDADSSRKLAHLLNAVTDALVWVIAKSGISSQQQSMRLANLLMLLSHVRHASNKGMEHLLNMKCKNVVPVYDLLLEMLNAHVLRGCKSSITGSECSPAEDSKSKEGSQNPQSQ

Structure (SMILES) | estrogenic activity (ER-β-specific) (ER-β) | induction of apoptosis (breast cancer cells) | induction of cell death (breast cancer cells) | induction of mitochondrial superoxide (breast cancer cells) | generation of reactive oxygen species (breast cancer cells) | generation/induction of superoxide (breast cancer cells)
C[C@@H]1O[C@@H](Oc2c(-c3ccc(O)c(O)c3)oc3cc(O)cc(O)c3c2=O)[C@H](O)[C@H](O)[C@H]1O [Quercetrin] | estrogenic activity |  |  |  |  | 
O=c1cc(-c2ccc(O)cc2)oc2cc(O)cc(O)c12 [Apigenin] |  | active | active | active |  | 
O=c1c(O)c(-c2ccc(O)c(O)c2)oc2cc(O)cc(O)c12 [Quercetin] | estrogenic activity |  |  |  |  | 
O=c1cc(-c2ccc(O)c(O)c2)oc2cc(O)cc(O)c12 [Luteolin] | estrogenic activity | active | active | active | active | active

Further lines, with some results ahead:

estrogenic activity (ER-β-specific) (ER-β) | Structure (SMILES) | induction of apoptosis (breast cancer cells) | induction of cell death (breast cancer cells) | induction of mitochondrial superoxide (breast cancer cells) | generation of reactive oxygen species (breast cancer cells) | generation/induction of superoxide (breast cancer cells)
estrogenic activity | O=c1c(O[C@@H]2O[C@H](CO)[C@@H](O)[C@H](O)[C@H]2O)c(-c2ccc(O)c(O)c2)oc2cc(O)cc(O)c12 [Quercetin-3-O-β-glucopyranoside] |  |  |  |  | 
estrogenic activity | O=C1CC(c2ccc(O)cc2)Oc2cc(O)cc(O)c21 (stereo not shown) [Narigenin] |  |  |  |  | 
